Where two headings read alike, the source gives them in different places.
Assays:
[1] = system: Corynebacterium glutamicum R; details: aerobic, A liquid medium, 33° C., OD610
Protocol: (§1) A growth inhibition test in aerobic culture was performed to examine the influence of phenol on Corynebacterium glutamicum, Escherichia coli, and Pseudomonas putida. Pseudomonas putida S12, which was used for the test, is reported to be a solvent-resistant strain. In the report, disclosed is an unparalleled technology using the strain as a host in phenol production.
Corynebacterium glutamicum R was applied to A agar medium (2 g of […], 7 g of (NH4)2SO4, 0.5 g of KH2PO4, 0.5 g of K2HPO4, 0.5 g of MgSO4.7H2O, 1 mL of 0.06% (w/v) Fe2SO4.7H2O+0.042% (w/v) MnSO4.2H2O, 1 mL of 0.02% (w/v) biotin solution, 2 mL of 0.01% (w/v) thiamin solution, 2 g of yeast extract, 7 g of vitamin assay casamino acid, 40 g of glucose, and 15 g of agar were suspended in 1 L of distilled water) and was left stand in the dark at 33° C. for 15 hours.
An inoculation loop of the Corynebacterium glutamicum R grown on a plate as above was inoculated into a test tube containing 10 mL of A liquid medium (2 g of (NH2)2CO, 7 g of (NH4)2SO4, 0.5 g of KH2PO4, 0.5 g of K2HPO4, 0.5 g of MgSO4.7H2O, 1 mL of 0.06% (w/v) Fe2SO4.7H2O+0.042% (w/v) MnSO4.2H2O, 1 mL of 0.02% (w/v) biotin solution, 2 mL of 0.01% (w/v) thiamin solution, 2 g of yeast extract, 7 g of vitamin assay casamino acid, and 40 g of glucose were suspended in 1 L of distilled water) and was aerobically cultured with shaking at 33° C. for 13 hours.
(§2) The Corynebacterium glutamicum R grown in the above conditions was inoculated into 100 mL of A liquid medium in such a way that the initial bacterial cell concentration would be OD610=0.05, phenol was added at the same time in such a way that the final concentration would be 0, 0.16, 0.2, 0.24, or 0.32 mM, and aerobic culture was performed with shaking at 33° C. The growth of bacterial cells was determined by absorbance measurement at OD610.

[2] = system: Corynebacterium glutamicum R; details: reducing conditions (ORP −450 mV), 8% glucose, 33° C.
Pseudomonas putida S12 = details: aerobic, LB (+glucose), 30° C., OD610
Protocol: as §1
(§3) Pseudomonas putida F1 and S12 were applied to LB agar medium (1% polypeptone, 0.5% yeast extract, 0.5% NaCl and 1.5% agar) and were left stand in the dark at 30° C. for 15 hours.
(§4) An inoculation loop of each of the Pseudomonas putida F1 and S12 grown on a plate as above was inoculated into a test tube containing 10 mL of LB (+glucose) liquid medium (1% polypeptone, 0.5% yeast extract, 0.5% NaCl and 0.4% glucose), and aerobic culture was performed with shaking at 30° C. for 13 hours.
as §2, with “The Pseudomonas putida F1 and S12” for “The Corynebacterium glutamicum R”, “conditions were each” for “conditions was”, “of LB (+glucose)” for “of A”, “0, 0.10,” for “0, 0.16, 0.2, 0.24,”, “or 0.20” for “or 0.32”, “at 30°” for “at 33°”

Pseudomonas putida F1 = details: aerobic, LB (+glucose), 30° C., OD610
Protocol: as §1, §3, §4
as §2, with “The Pseudomonas putida F1 and S12” for “The Corynebacterium glutamicum R”, “conditions were each” for “conditions was”, “of LB (+glucose)” for “of A”, “0, 0.10,” for “0, 0.16, 0.2, 0.24,”, “or 0.20” for “or 0.32”, “at 30°” for “at 33°”

Escherichia coli JM109 = details: aerobic, LB, 37° C., OD610
Protocol: as §1
Escherichia coli JM109 was applied to LB agar medium (1% polypeptone, 0.5% yeast extract, 0.5% NaCl and 1.5% agar) and was left stand in the dark at 37° C. for 15 hours.
An inoculation loop of the Escherichia coli JM109 grown on a plate as above was inoculated into a test tube containing 10 mL of LB liquid medium (1% polypeptone, 0.5% yeast extract, and 0.5% NaCl), and aerobic culture was performed with shaking at 37° C. for 13 hours.
as §2, with “Escherichia coli JM109” for “Corynebacterium glutamicum R”, “LB” for “A”, “0.16,” for “0.16, 0.2, 0.24,”, “0.20” for “0.32”, “37°” for “33°”

Oc1ccccc1 [phenol]
proliferation of Corynebacterium glutamicum ([1]; 0.16% phenol): hardly affected | proliferation of Corynebacterium glutamicum ([1]; 0.20% phenol): favorable growth | proliferation of Corynebacterium glutamicum ([1]; 0.24% phenol): able to proliferate | saccharide consumption by Corynebacterium glutamicum R ([2]; 0.24% phenol): no influence of phenol was observed | saccharide consumption by Corynebacterium glutamicum R ([2]; 0.38% phenol): saccharide consumption was observed | saccharide consumption by Corynebacterium glutamicum R ([2]; 0.46% phenol): slightly observed | proliferation of Pseudomonas putida S12 (Pseudomonas putida S12; 0.10% phenol): significantly affected | proliferation of Pseudomonas putida S12 (Pseudomonas putida S12; 0.20% phenol): completely inhibited | proliferation of Pseudomonas putida F1 (Pseudomonas putida F1; 0.10% phenol): significantly affected | proliferation of Pseudomonas putida F1 (Pseudomonas putida F1; 0.20% phenol): completely inhibited | proliferation of Escherichia coli (Escherichia coli JM109; 0.16% phenol): significantly affected | proliferation of Escherichia coli (Escherichia coli JM109; 0.20% phenol): completely inhibited
